From patent publication US8063035B2, “Triazolyl aminopyrimidine compounds” (Eli Lilly and Company, priority 2007, dated 2011)
Where two headings read alike, the source gives them in different places.

How the values were obtained:
[1] = tested on: HeLa Cells; assay: pHH3(S10), Mitotic Cells, and DNA Content Assays; format: cell-based; details: Homo sapiens, 23 hours exposure
Experimental: HeLa Cells are plated at 200 cells/well in 96 well […] BIOCOAT™ plates, and are incubated in MEM (Minimum Essential Medium) with 10% FBS (Fetal Bovine Serum) in 37° C., 5% CO2 for 24 hours. Cells are treated by adding compound (in 0.25% DMSO) to the medium, dosing at 10 points across the range 0.5 μM to 0.0098 μM. After 23 hours exposure to the compounds, cells are fixed, for example with the PREFER™ fixative for 30 min then are permeablized with 0.1% TRITON® X100 in phospate buffered saline (PBS) solution for 15 min. Cells are washed 3 times with PBS then digested with 50 μg/mL RNAse. Primary antibody, anti-phosphohistone H3 Serine 10, is added at 1:500 in PBS with 1% bovine serum albumin (BSA) to the cells over night at 4° C. After 3 PBS washes, cells are incubated with Alexa488 labeled secondary antibody for 1 hour at room temperature. Again they are washed 3 times with PBS, and then 15 μM propidium iodide is added for 30 min to stain nuclei. Fluorescence Plates are scanned with ACUMEN EXPLORER™ [Laser-scanning fluorescence microplate cytometer (comprising of 488 nm argon ion laser excitation and multiple photomultiplier tube detection), manufactured by TTP LABTECH LTD] to measure phosphohistone H3, DNA content and mitotic cells as measured by DNA condensation. Image analysis are based on cellular fluorescent signals for identifying cells in different subpopulations. pHH3(S10) positive cells are identified by mean intensity at 500-530 nm above the threshold. Total intensity at 655-705 nm from propidium iodide/DNA is used to identify individual cells (cells with DNA content from 2N to 4N) and subpopulations in cell cycle (2N cells, 4N cells). Peak intensity at 575-640 nm is used to identify DNA condensation that is used as the marker to identify mitotic cells among 4N cells. Assay outputs are percentage of each identified subpopulations, % pHH3, % 2N, % 4N, % mitotic and total cell number. The EC50 is determined by curve fitting to a four parameter logistic for each output using ACTIVITY BASE™.

[2] = tested on: HCT116 cells; assay: Antiproliferative Assay; format: cell-based; details: Homo sapiens, HCT-116, 72 hours, Alamar Blue, n=2, MSR 3.1
Experimental: The effects of compounds on cell proliferation can be determined using cells and cell proliferation methods well-known in the art (Robert C. Squatrito et al., Gynecological Oncology, 58, 101-105, (1995)). For example, HCT116 cells, which may be obtained from the American Type Culture Collection, may be seeded at ˜2000 cells/well in 96-well plates and allowed to attach overnight in a humidified CO2 incubator at 37° C. Following the 20-24 hour incubation, half-log serially diluted compounds are added and the plates are returned to the incubator. After an appropriate length of exposure (e.g., 72 hours), cell proliferation is estimated using well-known methods. In one method, 10 μL of a tetrazolium salt, such as Alamar Blue™ is added to the cell plates.

[3] = molecular target: T1, Plk1-Flag-His6 tag fusion enzyme (Homo sapiens, UniProt P53350); assay: Plk1 Inhibition Assay; format: biochemical; details: absolute IC50, 5.0 μM ATP, GST-Cdc25c (1-206) substrate, 60 min; MSR 3.6
T1 construct: FLAG (C); His6 (C); made in house; host or cells: Sf9 insect cells (baculovirus, pFastBac), treated with okadaic acid before harvest; The substrate was made in E. coli BL21 (pGEX-2T)
Excerpt: Human Plk1 cDNA may be directly linked at one of its termini with a polynucleotide sequence expressing a His6 tag, such as the C-terminal FLAG-His6 tag, and inserted into an appropriate expression vector, such as a pFastBac™ vector (Invitrogen) and transfected into an appropriate system, such as baculovirus similar to what has been reported by Yue-Wei Qian, et al., Science, 282, 1701 (1998) for xPlkk1. If a viral expression system is used, then the virus (e.g., baculovirus bearing a Plk1-Flag-His6 tag polynucleotide construct) is infected into a culture of a suitable host cell, such as Sf9 cells. […]
Plk1 kinase reactions contain Plk1-Flag-His6 tag fusion enzyme (0.2 ng/μL) in a buffer containing 50 mM HEPES, pH 7.3, 1.0 mM dithiothreitol, 5.0 μM ATP, 10 mM MgCl2, 0.01% TRITON® X-100, 0.4 μCi ^33P-ATP, and […] GST-Cdc25c (1-206) peptide. […] Wells are dried before addition of 40 μL of MicroScint™20 (Packard) and then counted on a Wallac MICROBETA® Jet. The percentage inhibition values from the 10-point concentration response data are subsequently analyzed, for example, using ACTIVITY BASE™ software (IDBS), using a 4-parameter logistic equation. Absolute IC50 values are calculated from the resulting curve fit.

[4] = tested on: A549; details: A549 murine xenograft; cited from earlier work
[5] = in man; cited from earlier work
[6] = tested on: HCT116; details: HCT116 murine xenograft; cited from earlier work
[7] = tested on: NCIH460; details: NCIH460 murine xenograft; cited from earlier work
[8] = in man, phase II clinical trials; cited from earlier work

T1 sequence (P53350 whole entry, the tested form may be a part): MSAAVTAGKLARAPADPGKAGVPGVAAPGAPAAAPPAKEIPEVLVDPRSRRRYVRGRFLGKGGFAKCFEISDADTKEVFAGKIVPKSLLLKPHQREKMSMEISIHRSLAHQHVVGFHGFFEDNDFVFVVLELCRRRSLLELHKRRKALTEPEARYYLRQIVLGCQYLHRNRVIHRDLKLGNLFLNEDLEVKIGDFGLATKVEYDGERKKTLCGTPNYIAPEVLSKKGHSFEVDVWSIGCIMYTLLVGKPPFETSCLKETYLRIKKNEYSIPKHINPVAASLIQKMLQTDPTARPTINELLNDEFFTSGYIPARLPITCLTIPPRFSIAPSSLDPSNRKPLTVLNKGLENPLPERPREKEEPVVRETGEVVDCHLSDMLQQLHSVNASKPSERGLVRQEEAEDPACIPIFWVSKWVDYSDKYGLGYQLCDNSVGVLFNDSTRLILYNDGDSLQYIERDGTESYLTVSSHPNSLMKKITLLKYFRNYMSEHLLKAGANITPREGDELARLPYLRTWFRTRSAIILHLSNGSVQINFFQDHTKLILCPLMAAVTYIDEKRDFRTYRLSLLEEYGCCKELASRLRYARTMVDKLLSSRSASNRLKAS

| SMILES | EC50 ([1]; MSR 2.4, read-out: DNA content EC50) | EC50 ([1]; MSR 2.5, read-out: mitotic EC50) | EC50 ([1]; MSR 2.6, read-out: pHH3(s10) EC50) | IC50 [2] | IC50 [3] | activity in preclinical model [4] | clearance (CL) [5] | activity in preclinical model [6] | activity in preclinical model [7] | dose-limiting toxicity [8] |
| --- | --- | --- | --- | --- | --- | --- | --- | --- | --- | --- |
| CC(N)c1ccc(F)cc1-c1cccc2cc(-c3nc(NCCn4ccnn4)ncc3F)sc12 (racemic) [Example 57, N-(2-(1H-1,2,3-Triazol-1-yl)ethyl)-4-(7-(2-(1-amino-ethyl)-5-fluorophenyl)-benzo[b]thiophen-2-yl)-5-fluoropyrimidin-2-amine] | 40 nM | 36 nM | 37 nM | 119 nM | 11 nM |  |  |  |  |  |
| CC[C@@H]1C(=O)N(C)c2cnc(Nc3ccc(C(=O)NC4CCN(C)CC4)cc3OC)nc2N1C1CCCC1 [BI-2536] |  |  |  |  |  | demonstrated activity | > 1000 mL/min | demonstrated activity | demonstrated activity | dose limited by myelosupression |
